Measured values as given in publication PMC9926489, “Chemical Optimization of Selective Pseudomonas aeruginosa LasB Elastase Inhibitors and Their Impact on LasB-Mediated Activation of IL-1β in Cellular and Animal Infection Models” (ACS Infectious Diseases, 2023).
Like-named read-outs stand apart in the source and are kept apart here.

Assays:
[1] = biological target: T1, rabbit angiotensin-converting enzyme (ACE) (Oryctolagus cuniculus, UniProt P12822); experiment: ACE selectivity assay; assay type: biochemical
T1 construct: purchased Sigma
T1 sequence (P12822 34-1310): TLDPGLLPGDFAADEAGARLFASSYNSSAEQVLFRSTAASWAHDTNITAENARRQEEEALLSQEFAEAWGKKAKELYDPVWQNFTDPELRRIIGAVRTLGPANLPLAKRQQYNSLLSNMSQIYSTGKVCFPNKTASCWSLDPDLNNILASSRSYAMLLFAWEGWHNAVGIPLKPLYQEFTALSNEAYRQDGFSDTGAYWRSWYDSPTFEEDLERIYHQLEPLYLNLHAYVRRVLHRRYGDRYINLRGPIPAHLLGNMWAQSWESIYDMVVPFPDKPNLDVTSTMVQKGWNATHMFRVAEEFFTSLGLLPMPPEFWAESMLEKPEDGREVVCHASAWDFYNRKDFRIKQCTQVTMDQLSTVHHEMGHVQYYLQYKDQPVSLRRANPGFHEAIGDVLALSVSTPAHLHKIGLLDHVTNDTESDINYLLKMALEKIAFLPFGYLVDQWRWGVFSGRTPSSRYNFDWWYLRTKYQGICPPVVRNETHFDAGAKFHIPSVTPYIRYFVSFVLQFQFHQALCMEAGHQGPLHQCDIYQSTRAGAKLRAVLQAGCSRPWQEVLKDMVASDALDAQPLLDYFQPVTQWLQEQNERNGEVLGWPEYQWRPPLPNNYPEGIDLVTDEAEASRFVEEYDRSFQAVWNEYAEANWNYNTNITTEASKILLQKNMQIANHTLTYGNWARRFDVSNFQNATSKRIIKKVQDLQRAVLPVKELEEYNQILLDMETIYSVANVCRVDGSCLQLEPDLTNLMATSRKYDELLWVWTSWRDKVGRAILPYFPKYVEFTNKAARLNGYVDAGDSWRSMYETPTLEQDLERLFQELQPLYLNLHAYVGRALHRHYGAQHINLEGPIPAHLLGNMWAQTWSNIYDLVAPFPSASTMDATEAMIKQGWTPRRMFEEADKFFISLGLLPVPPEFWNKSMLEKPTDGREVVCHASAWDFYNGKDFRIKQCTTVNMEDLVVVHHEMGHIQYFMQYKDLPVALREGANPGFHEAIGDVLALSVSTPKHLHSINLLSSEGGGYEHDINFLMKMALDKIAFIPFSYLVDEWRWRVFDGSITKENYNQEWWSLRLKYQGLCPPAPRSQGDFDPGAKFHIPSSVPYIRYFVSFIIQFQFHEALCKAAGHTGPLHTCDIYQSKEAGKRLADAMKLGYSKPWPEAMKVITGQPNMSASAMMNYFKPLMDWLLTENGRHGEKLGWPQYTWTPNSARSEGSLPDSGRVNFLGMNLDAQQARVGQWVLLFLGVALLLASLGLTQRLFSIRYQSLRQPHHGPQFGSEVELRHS
Description: (§1) Selectivity of compound inhibition was evaluated against other proteases at concentrations between 0.4 and 200 μM. Activity against rabbit angiotensin-converting enzyme (ACE, Sigma) was assessed using 10 μM fluorogenic substrate Abz-Phe-Arg-Lys(Dnp)-P (Enzo Life Sciences) in 100 mM Tris-HCl pH 7, 50 mM NaCl, 10 μM Zn SO4. Activity against human matrix metalloproteases (MMP)-2 and MMP-9 was assessed in 50 mM HEPES pH 7.5, 10 mM CaCl2, 0.01% Triton X-100 using 4 μM fluorogenic substrate Mca-Pro-Leu-Gly-Leu-Dpa-Ala-Arg-NH2 (Enzo Life Sciences). Activity against MMP-1 and MMP-13 was assessed in 25 mM HEPES pH 7.5, 100 mM NaCl, 100 mM CaCl2, 0.0005% Brij using 7.5 μM fluorogenic substrate Mca-Lys-Pro-Leu-Gly-Leu-Dpa-Ala-Arg-NH2 (Sigma) for MMP-1 and 1.25 μM fluorogenic substrate Mca-Pro-Cha-Gly-Nva-His-Ala-Dpa-NH2 (Millipore) for MMP-13. Activity against human neutrophil elastase (HNE, Enzo Life Sciences) was assessed in 100 mM HEPES pH 7.5, 500 mM NaCl, 0.01% of Triton X-100 using 100 μM fluorogenic substrate MeOSuc-AAPV-AMC (Enzo Life Sciences).

[2] = biological target: MMP-13 (Homo sapiens, UniProt P45452); experiment: MMP-13 selectivity assay; assay type: biochemical; details: human MMP-13
Description: as §1

[3] = biological target: MMP-9 (Homo sapiens, UniProt P14780); experiment: MMP-9 selectivity assay; assay type: biochemical; details: human MMP-9
Description: as §1

[4] = Mouse pharmacokinetics, plasma; assay type: in vivo; details: single 10 mg/kg IV dose; for half-life / C0 / AUC(0-t) / clearance: female, ICR (CD-1), plasma; for half-life: iv, read-out: plasma t1/2 (converted); for half-life / plasma t1/2: 10 mg/kg; for AUC(0-t): read-out: plasma AUClast; for clearance: read-out: plasma CL
Description: The PK parameters of compounds 12 and 16 were investigated in both plasma and lung epithelial lining fluid (ELF) after intravenous (IV) administration of compounds at 10 mg/kg in mice (Figure 4 and Table 5). […] Accordingly, these levels of lung penetration (9.5 and 5.2%, respectively) warranted the evaluation of the compounds in an animal model of lung infection using IV dosing.
Unrestrained, nonanesthetized mice (Female ICR (CD-1); Age 5–6 weeks; Size 22 ± 2 g; specific pathogen-free (SPF)) were injected IV with test article formulations via the tail vein. Animals were sacrificed by cardiac puncture under CO2 euthanasia at 0.08, 0.25, 1, 2, 4, 8, and 24 h post dosing. Blood was drawn into tubes coated with EDTA-K3, mixed gently and plasma was then harvested and kept frozen at −70 °C until further processing. To collect […] (BALF), 0.5 mL of PBS was administered once through a tracheal cannula after which about 0.2 to 0.3 mL of BALF was obtained. The BALF was kept on ice and centrifuged within 1 h of collection and the supernatant was harvested and kept frozen at −70 °C. Plasma and BALF samples were analyzed by LC-MS/MS (AB SCIEX API 3000 mass spectrometer). The apparent ELF volume of each BALF sample was estimated using urea as an endogenous marker of the ELF dilution. The urea concentrations in BALF and plasma samples were determined with the QuantiChrom Urea Assay Kit (DIUR-100) (BioAssay Systems) following the manufacturer’s protocol. For each BALF sample, the drug concentration in ELF was calculated as follows: drug concentrationELF = drug concentrationBALF × (urea concentrationplasma/urea concentrationBALF). The PK parameters of each compound after IV dosing (t1/2, C0, AUClast, and CL) were obtained from the noncompartmental analysis (NCA) of the plasma data using WinNonlin.

MMP-9, sequence (P14780 94-707): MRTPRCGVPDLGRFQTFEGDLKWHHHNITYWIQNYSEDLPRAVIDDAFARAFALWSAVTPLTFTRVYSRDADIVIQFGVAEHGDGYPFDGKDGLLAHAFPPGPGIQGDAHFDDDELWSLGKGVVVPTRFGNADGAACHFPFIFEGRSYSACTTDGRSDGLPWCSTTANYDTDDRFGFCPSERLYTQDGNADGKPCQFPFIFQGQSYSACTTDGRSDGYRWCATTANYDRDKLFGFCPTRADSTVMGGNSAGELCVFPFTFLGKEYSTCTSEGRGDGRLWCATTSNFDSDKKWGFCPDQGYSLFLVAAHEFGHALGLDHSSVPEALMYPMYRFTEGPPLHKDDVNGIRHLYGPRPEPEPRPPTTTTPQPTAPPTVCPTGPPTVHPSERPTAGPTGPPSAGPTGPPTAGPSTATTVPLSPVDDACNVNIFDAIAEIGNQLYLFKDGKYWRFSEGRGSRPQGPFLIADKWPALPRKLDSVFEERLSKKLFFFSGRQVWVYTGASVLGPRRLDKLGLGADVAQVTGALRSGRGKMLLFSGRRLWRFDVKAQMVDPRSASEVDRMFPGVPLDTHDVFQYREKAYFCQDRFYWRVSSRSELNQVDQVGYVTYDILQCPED

Work on `COc1cc2sc(CNC(=O)C3(CC(=O)O)Cc4ccccc4C3)nc2cc1OCCC[N+](C)(C)C` [Compound 12] yielded an IC50 ([1]; rabbit ACE, read-out: selectivity IC50, ACE) of over 200 µM, an IC50 [2] of over 100 µM and an IC50 [3] of over 200 µM. It also gave a half-life [4] of about 6 h, a C0 [4] of 92.2 µg/mL and an AUC(0-t) [4] of 610 µg·h/mL. For the same molecule, the clearance [4] was 0.3 mL/min/kg and the “plasma t1/2” value [4] was 6.2 h.
`COc1cc2sc(CNC(=O)C3(CC(=O)O)Cc4cc(F)c(F)cc4C3)nc2cc1OCCC[N+](C)(CCO)CCO` [Compound 16] showed an IC50 [1] of over 200 µM, an IC50 [2] of over 100 µM and an IC50 [3] of over 200 µM. For the same molecule, the half-life [4] was about 6 h, the C0 [4] was 176 µg/mL and the AUC(0-t) [4] was 517 µg·h/mL. For the same molecule, the clearance [4] was 0.3 mL/min/kg and the “plasma t1/2” value [4] was 6.5 h.
